The source of these data is PubChem BioAssay AID743417 (Broad Institute, 2014).

Structures are written as SMILES. Inconclusive results are not listed. Activity calls are given as the source filed them.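 Rule for the calls: active = compounds lowering the luciferase signal with a fitted half-maximal dose at most twice their top valid dose (cut at about 30 µM in these data); inconclusive = flat fits with moderate signal loss, or poor fits; inactive = the rest.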

This assay has as its system Clone20 osteoblast Shn3 3'UTR firefly luciferase, 24 h. The assay is described as follows: Schnurri-3 3'UTR-luciferase signal suppressors – cell-based, Clone20 osteoblasts, luminescence, dry powder, set 2, dose response (AID 743417).
One may read the AC50 as the concentration at which the activity in the assay is half-maximal. As to `Cc1cc(N2CCCCC2)nc(NCc2ccccc2)n1`, the AC50 is 4.01 µM.
Consider `O=C(Nc1ccc2nc3n(c(=O)c2c1)CCCCC3)c1c(F)ccc([N+](=O)[O-])c1F`, for which the AC50 was 2.3 µM.
Regarding `Cc1ccc2nnn(Cc3cccc(C(C)(C)C)c3O)c2c1`, the concentration at half-maximal activity (AC50) is 5.44 µM.
Take `CCOC(=O)COc1ccc2ccccc2c1/C=C/[N+](=O)[O-]`: the AC50 was 5.2 µM.
In the case of `O=C(c1cnc(N2CCN(c3ccccn3)CC2)c2ccccc12)N1CCN(c2cccc(Cl)c2)CC1`, the AC50 was 1.99 µM.
In the case of `CCc1c(C)nc2ncnn2c1N1CCN(S(=O)(=O)c2ccc(OC)cc2)CC1` it was 1.16 µM; in that of `CCN1CCN(Cc2ccc(NC(=O)c3ccc(C)c(NC(=O)c4c[nH]c5cc(C(F)(F)F)ccc5c4=O)c3)cc2C(F)(F)F)CC1`, 3.13 µM.
As to `COc1ccccc1N(C)S(=O)(=O)c1ccc(C(=O)Nc2cc(F)ccc2C)cc1`, the AC50 was 13.8 µM.
`O=C(/C=C/c1ccc(OCc2ccccc2)c(OCc2ccccc2)c1)c1cccnc1`: the AC50 was 5.19 µM.
Turning to `O=C(NNC(=O)c1cccnc1SCc1cccc([N+](=O)[O-])c1)c1ccccn1`, the AC50 was 1.9 µM.
In the case of `Cc1[nH]nc2c1-c1nc3ccccc3nc1C(C)(C)C2`, the AC50 was 4.2 µM.
Under `O=C(O)c1cccc(COc2ccc(CO)cc2Cl)c1` stands 1.04 µM.
With `CN(C)CC(C(=O)c1ccccc1)c1ccccc1` (stereo unspecified), the AC50 was 2.8 µM.
For `CCCCCn1c(=O)c(C(=O)Nc2cnccn2)c(O)c2ccccc21`, the concentration at half-maximal activity (AC50) was 1.54 µM.
As to `Cc1cc(C2=NNC(=NC3CC3)SC2)c(C)n1-c1ccccc1F`, the AC50 was less than 0.26 µM.
As for `Cc1ccc(CNC(=O)c2cc3c(C)nc4ccccc4c3o2)cc1`, the AC50 is 2.49 µM.
Consider `CC1(c2ccc3ccccc3c2)NC(=O)N(CC(=O)N2CCN(Cc3ccc(C#N)cc3)CC2)C1=O` (stereo unspecified), for which the AC50 is 0.416 µM.
Regarding `CN(C)c1ncnc2c1C(c1ccccc1)C(C)(C)O2` (stereo unspecified), the AC50 was > 70 µM (inactive).
Take `OC[C@@H]1CN(Cc2ccc(-c3ccccc3)cc2)C[C@H](n2cnc3c(NCc4ccc(F)cc4)ncnc32)O1`: the AC50 is 1.58 µM.
Turning to `CCCCCCN1C[C@@H](n2cc(-c3ccc(F)cc3)nn2)[C@H](O)C[C@@H]1c1ccc(Cl)cc1`, the half-maximal activity concentration (AC50) is 12.5 µM.
`CC(=O)O[C@H]1CCC2C3CC[C@H]4[C@@H](O)[C@H](O)CC[C@]4(C)C3CC[C@@]21C` (stereo partly specified): the AC50 was > 70 µM (inactive).
`O=C(NCc1cccnc1)/C(=C\c1ccc(-c2ccc(Br)cc2)o1)S(=O)(=O)c1ccccc1`: the AC50 was 6.33 µM.
Turning to `OCc1ccc(O)c2ncccc12`, the AC50 was 1.66 µM.
Consider `Cc1ccc(CNc2nc(NCC3CC3)nc3ccsc23)c(C)c1`, for which the AC50 was 3.95 µM.
For the molecule `CCOc1ccccc1NC(=O)c1nc(S(=O)(=O)Cc2cccc(C)c2)ncc1Cl`, the AC50 was 0.324 µM.
`CCOC(=O)c1cnc(-n2nc(C)cc2C)nc1NNc1nc(-c2ccccc2)cc(-c2ccccc2)n1`: the AC50 was 3.84 µM.
Under `COc1cc(CN2CCc3ccccc3C2)ccc1O` stands 0.912 µM; under `CCN(CC)c1ccc2c(c1)oc(=O)c1c(Cl)cc(=O)oc12`, 2.22 µM; under `O=C(Nc1ccc(Cl)cc1)/C(=C/c1cccc(O)c1)c1nc2ccccc2s1`, 3.53 µM.
Consider `COc1ccc(NS(=O)(=O)c2ccc(N3CCOCC3)c(N)c2)cc1`, for which the AC50 was 1.08 µM.
Regarding `CC[C@@H](C)[C@H](NC(=O)OC(C)(C)C)c1nnc(S(=O)(=O)Cc2cc(C)ccc2C)o1`, the concentration at half-maximal activity (AC50) was 5.77 µM.
Under `CC(C)(C)C(=O)Cn1ncc(Br)c(Br)c1=O` stands 9.51 µM; under `CCCCC(=O)NC(c1ccc(C(C)C)cc1)c1ccc2cccnc2c1O` (stereo unspecified), 0.57 µM; under `CCCCCOC(=O)c1[nH]c2c(c1C)C(=O)CC(c1ccco1)C2` (stereo unspecified), 1.49 µM.
With `COc1ccc(Nc2nc(N3CCCCC3)c3ccccc3n2)cc1`, the concentration at half-maximal activity (AC50) is 2.11 µM.
As to `CN(Cc1ccc(OCC(O)CN2CCCCC2)cc1)Cc1ccnc2ccccc12` (stereo unspecified), the AC50 was 1.21 µM.
Consider `CCN(CC)C(=O)[C@H]1C[C@H](CC(=O)NC/C=C(\C)CCC=C(C)C)C(=O)N2CCc3c([nH]c4cc(CCC(=O)N(C)C)ccc34)[C@]12C`, for which the AC50 was 1.37 µM.
Consider `COc1ccccc1NC(=O)Cn1cc(C(=O)C2CC2)c2ccccc21`, for which the half-maximal activity concentration (AC50) is 4.76 µM.
On to `NC(=O)CC(NC(=O)c1ccc(Br)cc1)c1ccc(N2CCC(Br)CC2)c([N+](=O)[O-])c1` (stereo unspecified), for which the AC50 was 4.19 µM.
For `O=C(N[C@@H]1C/C=C\C[C@@H](CC(=O)N(CCO)Cc2ccccc2)C(=O)NC[C@H](c2ccccc2)OC1=O)OCC1c2ccccc2-c2ccccc21`, the concentration at half-maximal activity (AC50) is 7.04 µM.
Regarding `CCOC(=O)c1c2c(n(C)c1C)C(=O)C(=O)c1ccc(Br)cc1-2`, the concentration at half-maximal activity (AC50) was 1.01 µM.
Consider `c1ccc(CCNc2ccnc3cc4ccccc4cc23)cc1`, for which the AC50 was 1.62 µM.
In the case of `CCCCCCCCCCOC(=O)Cn1c(COc2ccc(OC)cc2)[n+](C)c2ccccc21` it was 2.01 µM; in that of `O=C1CC(c2ccccc2)CC(O)=C1C=Nc1cccc(Cl)c1` (stereo unspecified), 4.94 µM.
As to `Nc1nc(N)c2cc(S(=O)(=O)c3ccc4ccccc4c3)ccc2n1`, the AC50 was 3.37 µM.
As to `CCN(CC)C(=O)c1oc2ccc(S(=O)(=O)N3CC(C)CC(C)C3)cc2c1C` (stereo unspecified), the half-maximal activity concentration (AC50) was 1.02 µM.
Regarding `CN(Cc1nccn1C)C(=O)c1cc(COc2ccc3ncccc3c2)on1`, the concentration at half-maximal activity (AC50) was 6.97 µM.
Under `CC1Cc2ccccc2N1Cc1cccc(S(=O)(=O)N(C)C)c1` (stereo unspecified) stands 33 µM; under `COC(=O)c1cc2c(n1S(=O)(=O)c1ccc(C)cc1)C(=O)C(=O)c1[nH]cc(C(=O)OCc3ccccc3)c1-2`, 1.2 µM.
For the molecule `O=C(CC(O)(C(F)(F)F)C(F)(F)F)Nc1ccc(Cl)c(Cl)c1`, the AC50 was 4.97 µM.
With `CC(C)(O)C#Cc1ccc([C@@H]2C[C@H]3CN(c4ccccc4)C(=O)[C@]34CCCN24)s1`, the concentration at half-maximal activity (AC50) was 4.93 µM.
With `CCCC(=O)NC(c1ccc(N(C)C)cc1)c1ccc2cccnc2c1O` (stereo unspecified), the AC50 was 0.916 µM.
Turning to `Cc1cc(C)c(O)c(-c2cc(C(=O)Nc3ccc(S(=O)(=O)N4CCOCC4)cc3)[nH]n2)c1`, the AC50 was 5.48 µM.
Take `CCOc1cc2c(cc1OCC)-n1cccc1C(c1ccc(C(C)C)cc1)NC2` (stereo unspecified): the half-maximal activity concentration (AC50) is 7.22 µM.
In the case of `Cc1nc2ccc(NC(=O)c3cccc(S(=O)(=O)N(C)c4ccccc4)c3)cc2s1` it was 7.6 µM; in that of `Oc1c(Cl)cc(CN2CCOCC2)c2cccnc12`, 2.43 µM; in that of `C[C@H]1C[C@@H](C)C(=O)[C@@H]([C@H](O)CC2CC(=O)NC(=O)C2)C1`, 0.307 µM.
As for `CCN(CC)S(=O)(=O)c1cccc(NC(=O)CNc2cccc(S(=O)(=O)N3CCOCC3)c2)c1`, the AC50 was 0.865 µM.
Under `CN(C)C1=NC[C@H](Cc2ccccc2)N1CCCC1CCCCC1` stands 1.47 µM; under `COc1cccc(C(c2nnnn2-c2ccc3c(c2)OCCO3)N2CCC(n3c(=O)[nH]c4ccccc43)CC2)c1OC` (stereo unspecified), 3.74 µM; under `Cc1ccc(S(=O)(=O)NCCc2cc3ccc(C)cc3[nH]c2=O)cc1`, > 70 µM (inactive).
Under `Cc1ccc2nc(NC(=O)C3CCN(S(=O)(=O)c4ccc5c(c4)oc(=O)n5C)CC3)sc2c1` stands 3.35 µM; under `CC1CCN(Cc2ccc(-c3nnn(CC(=O)Nc4ccccc4Cl)n3)cc2)CC1`, 1.77 µM; under `O=S(=O)(/C(=C\c1ccc(C(F)(F)F)cc1)c1nc2ccccc2[nH]1)c1ccccc1`, 1.85 µM.
Regarding `Cc1cccc(C)c1NC(=O)CN(C)C(=O)c1cc(S(=O)(=O)N(C)C)ccc1N1CCCC1`, the AC50 is 27.1 µM.
For `COc1ccc(NC(=O)COc2ccc(N(C)S(=O)(=O)c3ccc(Cl)cc3)cc2)cc1OC`, the concentration at half-maximal activity (AC50) was 1.35 µM.
As to `c1ccc(CN=C(NCc2ccccc2)NCc2ccccc2)cc1`, the concentration at half-maximal activity (AC50) was 1.79 µM.
For the molecule `COc1cc(NC(=O)c2cc3c(Cl)nc4ccccc4c3s2)cc(OC)c1OC`, the half-maximal activity concentration (AC50) is 24.4 µM.
For the molecule `COc1cccc(CNc2nc(NCC3CC3)nc3ccsc23)c1`, the AC50 is 5.86 µM.
Take `COc1ccc(CC2NCC(O)C2OC(C)=O)cc1` (stereo unspecified): the concentration at half-maximal activity (AC50) is less than 0.26 µM.
In the case of `CCC(OC(=O)c1ccc(S(C)(=O)=O)c([N+](=O)[O-])c1)C(=O)NC1C2CC3CC(C2)CC1C3` (stereo unspecified), the AC50 is 1.66 µM.
In the case of `Cc1ccc(Nc2c(-c3ccccn3)nc3ccc(C)cn23)cc1` it was 1.74 µM; in that of `N#CC(c1cccc(Cl)c1)c1ccc2c(C(F)(F)F)cc(C(F)(F)F)nc2n1` (stereo unspecified), 0.689 µM.
Under `O=C(Nc1nc2c(F)cc(F)cc2s1)c1ccccn1` stands 6.69 µM.
Regarding `CCCN(CCC)S(=O)(=O)c1ccc(C(=O)Nc2nnc(-c3cc(OC)cc(OC)c3)o2)cc1`, the AC50 is 2.64 µM.
`CCOC(=O)C1CCCN(C(=O)Cn2sc3nc(C)cc(C)c3c2=O)C1` (stereo unspecified): the half-maximal activity concentration (AC50) was 12.5 µM.
Under `CC(C)C(=O)NC(c1ccc(Cl)cc1Cl)c1ccc2cccnc2c1O` (stereo unspecified) stands 0.691 µM; under `Cc1ccc(-c2ccc(/C=C3\C(=O)ON=C3c3ccccc3)o2)c([N+](=O)[O-])c1`, 3.3 µM.
As for `Cc1ccc2[nH]c3c(N4CCN(Cc5ccccc5)CC4)ncnc3c2c1`, the concentration at half-maximal activity (AC50) was 4.18 µM.
As to `CCOc1ccc(CN(C)c2ccc(S(=O)(=O)N3CCN(C)CC3)cc2[N+](=O)[O-])cc1OC`, the AC50 is 3.38 µM.
As for `CCOC(=O)CS(=O)(=O)c1nc(-c2ccccc2)cc(C(F)(F)F)n1`, the half-maximal activity concentration (AC50) is 3.42 µM.
For the molecule `CCCC(c1nnnn1Cc1ccc(OC)cc1)N1CCN(c2ccccc2)CC1` (stereo unspecified), the AC50 is 31.9 µM.
Regarding `O=C(Nc1ccccc1Cl)/C(Cl)=C(\Cl)S(=O)c1ccccc1` (stereo unspecified), the AC50 was 0.438 µM.
As for `CCOC(=O)/C(=C\c1ccc([N+](=O)[O-])cc1)C(=O)c1cc(C(C)=O)c(Nc2ccccc2)s1`, the AC50 was 2.47 µM.
Turning to `CCOc1cc(CNCCc2ccc(S(N)(=O)=O)cc2)ccc1OCc1ccccc1`, the AC50 is 2.44 µM.
Turning to `Cc1ccc(S(=O)(=O)N2CCCCC2)cc1NC(=O)Cn1ncc(Cl)c(Cl)c1=O`, the AC50 was 4.32 µM.
As to `CCCCN1CC(COCc2ccccc2)Oc2cccc(Oc3ccc(C(C)C)cc3)c2S1(=O)=O` (stereo unspecified), the AC50 is 5.03 µM.
Regarding `NS(=O)(=O)c1ccc(CNC(=S)NC(=O)c2ccco2)cc1`, the AC50 is 22.9 µM.
As to `CS(=O)(=O)c1ccc(C(=O)OCC(=O)Nc2cccnc2Cl)cc1[N+](=O)[O-]`, the AC50 was 9.09 µM.
`CN(C)S(=O)(=O)c1cccc(NC(=O)c2cccc(S(=O)(=O)N3CCc4ccccc43)c2)c1`: the AC50 is 3.92 µM.
Consider `O=C(Nc1ccc([N+](=O)[O-])cc1Cl)c1cc(Cl)ccc1O`, for which the AC50 was 3 µM.
